Measurements reported in BindingDB's records for doi:10.1080/14756360500112326 (National Institute of Pharmaceutical Education and Research, 2005).
pIC50: −log10 of the molar value.

Biological target: Xanthine dehydrogenase/oxidase (Homo sapiens, UniProt P47989)
Experiment: Xanthine Oxidase Inhibition Assay
Experimental: Inhibition assay of the xanthine oxidase reaction by various purine based inhibitors was measured in terms of the decrease in uric acid formation at […].

Xanthine dehydrogenase/oxidase, sequence (P47989 whole entry): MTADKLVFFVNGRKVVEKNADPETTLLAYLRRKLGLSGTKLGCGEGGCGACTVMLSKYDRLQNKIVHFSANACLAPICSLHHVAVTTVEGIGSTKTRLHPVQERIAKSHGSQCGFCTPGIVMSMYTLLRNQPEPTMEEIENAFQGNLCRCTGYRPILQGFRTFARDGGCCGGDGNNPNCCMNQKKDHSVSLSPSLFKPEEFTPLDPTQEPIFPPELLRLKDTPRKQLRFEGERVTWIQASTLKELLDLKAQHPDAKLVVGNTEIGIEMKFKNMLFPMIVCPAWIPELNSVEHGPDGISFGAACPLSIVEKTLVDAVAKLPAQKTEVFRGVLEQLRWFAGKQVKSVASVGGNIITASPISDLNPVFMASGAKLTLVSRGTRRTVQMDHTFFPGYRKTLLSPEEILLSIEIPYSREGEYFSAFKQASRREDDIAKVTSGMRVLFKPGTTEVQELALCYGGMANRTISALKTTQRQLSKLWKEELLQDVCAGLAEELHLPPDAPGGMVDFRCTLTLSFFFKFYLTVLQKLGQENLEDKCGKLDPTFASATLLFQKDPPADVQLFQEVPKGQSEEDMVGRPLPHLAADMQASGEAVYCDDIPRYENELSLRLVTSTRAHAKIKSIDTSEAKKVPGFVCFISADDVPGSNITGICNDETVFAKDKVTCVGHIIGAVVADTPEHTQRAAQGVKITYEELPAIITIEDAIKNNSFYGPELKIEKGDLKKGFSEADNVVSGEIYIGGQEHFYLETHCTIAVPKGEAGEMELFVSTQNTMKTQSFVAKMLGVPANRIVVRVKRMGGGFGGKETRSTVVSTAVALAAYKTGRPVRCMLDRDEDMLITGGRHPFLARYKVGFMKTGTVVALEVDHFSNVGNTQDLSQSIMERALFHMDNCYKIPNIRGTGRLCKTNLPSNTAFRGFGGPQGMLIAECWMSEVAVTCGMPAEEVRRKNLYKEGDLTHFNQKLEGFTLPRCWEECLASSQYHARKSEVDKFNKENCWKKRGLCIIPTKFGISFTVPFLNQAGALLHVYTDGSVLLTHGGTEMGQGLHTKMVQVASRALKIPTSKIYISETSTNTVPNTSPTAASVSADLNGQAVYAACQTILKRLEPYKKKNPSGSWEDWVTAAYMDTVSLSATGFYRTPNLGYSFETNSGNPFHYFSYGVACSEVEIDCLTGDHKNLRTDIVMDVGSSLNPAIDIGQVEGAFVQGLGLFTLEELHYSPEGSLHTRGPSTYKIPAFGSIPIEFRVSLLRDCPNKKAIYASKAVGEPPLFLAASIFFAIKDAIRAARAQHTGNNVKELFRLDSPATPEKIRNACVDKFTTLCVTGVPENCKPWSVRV

pIC50	Structure (SMILES)
4.12	Nc1ncnc2nc[nH]c12
6.35	O=C(Nc1ncnc2nc[nH]c12)c1ccccc1 [6-(N-benzoylamino)purine, 2]
3.40	O=c1[nH]c(=O)c2[nH]c(Br)nc2[nH]1 [8-Bromoxanthine, 3]
